According to patent US9249129B2, “Morpholino substituted urea derivatives as mTOR inhibitors” (CELLZOME LIMITED, priority 2010, dated 2016):
Read-outs that look alike come from different tables or passages of the source.

How the values were obtained:
[1] = molecular target: T1, mTOR (Homo sapiens, UniProt P42345); assay: mTOR kinobeads assay (dot blot detection); format: binding
T1 construct: endogenous in cells; host or cells: Jurkat cells (ATCC TIB-152, clone E6-1), lysate
Description: (§1) The compounds of the present invention as described were tested in the mTOR kinobeads assay as described below. Briefly, test compounds (at various concentrations) and the affinity matrix (1:1 mixture of beads with immobilized phenylthiazole ligand 1 and beads with immobilized phenylmorpholin-chromen ligand; WO 2009/098021) were added to cell lysate aliquots and allowed to bind to the proteins in the lysate sample. After the incubation time the beads with captured proteins were separated from the lysate. Bound proteins were then eluted and the presence of mTOR, PI3K delta (PI3 Kd) and DNA-dependent protein kinase (DNA-PK) was detected and quantified using a specific antibody in a dot blot procedure and the Odyssey infrared detection system. Dose response curves for individual kinases were generated and IC50 values calculated. Kinobeads assays for PI3 kinases (WO-A 2008/015013) and for kinase selectivity profiling (WO 2009/098021) have been previously described.
(§2) The affinity matrix (beads with immobilized phenylmorpholin-chromen ligand) was washed two times with 15 ml of 1×DP buffer containing 0.2% NP40 (IGEPAL® CA-630, Sigma, #13021) and then resupended in 5.5 ml of 1×DP buffer containing 0.2% NP40 (10% beads slurry).
(§3) 5×DP buffer: 250 mM Tris-HCl pH 7.4, 25% Glycerol, 7.5 mM MgCl2, 750 mM NaCl, 5 mM Na3VO4, filter the 5×-lysis buffer through 0.22 μm filter and store in aliquots at −80° C. The 5×DP buffer is diluted to 1×DP buffer containing 1 mM DTT and 25 mM NaF.
(§4) Stock solutions of test compounds were prepared in DMSO. In a 96 well plate 30 μl solution of diluted test compounds at 5 mM in DMSO were prepared. Starting with this solution a 1:3 dilution series (9 steps) was prepared. For control experiments (no test compound) a buffer containing 2% DMSO was used. Compound CZC00018052 served as a positive control (PI-103; Calbiochem catalogue number 528100).
(§5) Jurkat cells (ATCC catalogue number TIB-152 Jurkat, clone E6-1) were grown in 1 litre Spinner flasks (Integra Biosciences, #182101) in suspension in RPMI 1640 medium (Invitrogen, #21875-034) supplemented with 10% Fetal Bovine Serum (Invitrogen) at a density between 0.15×10^6 and 1.2×10^6 cells/ml. Cells were harvested by centrifugation, washed once with 1×PBS buffer (Invitrogen, #14190-094) and cell pellets were frozen in liquid nitrogen and subsequently stored at −80° C.
(§6) Jurkat cells were homogenized in a Potter S homogenizer in lysis buffer: 50 mM Tris-HCl, 0.8% NP40, 5% glycerol, 150 mM NaCl, 1.5 mM MgCl2, 25 mM NaF, 1 mM sodium vanadate, 1 mM DTT, pH 7.5. One complete EDTA-free tablet (protease inhibitor cocktail, Roche Diagnostics, 1873580) per 25 ml buffer was added. The material was dounced 10 times using a mechanized POTTER S, transferred to 50 ml falcon tubes, incubated for 30 minutes on ice and spun down for 10 min at 20,000 g at 4° C. (10,000 rpm in Sorvall SLA600, precooled). The supernatant was transferred to an ultracentrifuge (UZ)-polycarbonate tube (Beckmann, 355654) and spun for 1 hour at 100.000 g at 4° C. (33.500 rpm in Ti50.2, precooled). The supernatant was transferred again to a fresh 50 ml falcon tube, the protein concentration was determined by a Bradford assay (BioRad) and samples containing 50 mg of protein per aliquot were prepared. The samples were immediately used for experiments or frozen in liquid nitrogen and stored frozen at −80° C.
(§7) Jurkat cell lysate (approximately 50 mg protein per plate) was thawed in a water bath at room temperature and then kept on ice. To the thawed cell lysate 1×DP 0.8% NP40 buffer containing protease inhibitors (1 tablet for 25 ml buffer; EDTA-free protease inhibitor cocktail; Roche Diagnostics 1873580) was added in order to reach a final protein concentration of 5 mg/ml total protein. The diluted cell lysate was stored on ice. […]

[2] = molecular target: T2, PI3Kγ (Homo sapiens, UniProt P48736); assay: kinobeads assay, PI3K gamma (dot blot detection); format: binding; conditions: Table 4, read-out: Inhibition values (IC50) PI3Kg
T2 construct: endogenous in cells; host or cells: Jurkat cells (ATCC TIB-152) lysate, the only lysate described

[3] = tested on: S6RP serine-240/244 phosphorylation in HEK293T/17 cells; assay: In vitro phospho-S6 cellular assay (pS6RP S240/244); format: cell-based; conditions: Homo sapiens, Table 6, 2 hours, S6RP Ser240/244, read-out: pS6 (phospho-S6 cell assay data, activity level)
Description: In Vitro Phospho-S6 and Phospho-Akt Cellular Assay
Activation of mTOR signaling results in phosphorylation of several downstream targets. In cells, mTOR exists in two different protein complexes. The mTOR Complex-1 (mTORC1) phosphorylates and activates S6 Kinase 1 (S6K1) and S6 Kinase 2 (S6K2) (also known as p70S6K) which then phosphorylate S6 Ribosomal Protein (S6RP) (also known as RPS6). S6RP is phosphorylated on serine 235, serine 236, serine 240 and serine 244 by both pS6K1 and pS6K2. The mTOR Complex-2 (mTORC2) phosphorylates AKT on serine 473 which activates the AKT signaling pathway.
The assay measures a test compound's inhibition of S6RP serine-240/244 phosphorylation and inhibition of Akt serine-473 phosphorylation in human embryonic kidney derived HEK293T/17 cells (ATCC CRL-11268).
The HEK293T/17 cell line is maintained in DMEM media (Invitrogen catalogue number 41965-039) supplemented with 10% FCS at 37° C. in a 5% CO2 humidified incubator.
Cells are seeded in 96-well plates at 40,000 cells/well (pS6RP S240/244 assay) or 80,000 cells/well (pAkt 5473 assay) in 90 μl growth media (DMEM, 2% FCS). Plates are incubated for 1 hour in a humidified incubator to allow the cells to adhere. Cells are treated with 8 concentrations of test compounds or DMSO alone for controls (final DMSO concentration 0.1%) and incubated at 37° C. for 2 hours. Then 20 μl of 5× concentrated lysis buffer (750 mM NaCl, 100 mM Tris pH7.4, 5 mM EDTA, 5 mM EGTA, 5% Triton X-100) is added, plates are sealed and incubated for 15 minutes at 4° C. with gentle shaking. After cell lysis, 25 μl cell lysate is transferred to a MesoScale plate coated with an antibody to pS6RP Ser240/244 (MesoScale Discovery K150DGD-3) or an antibody to pAkt Ser 473 (MesoScale Discovery K151DGD-3). Plates have been blocked before by incubation with 150 μl MesoScale Discovery Blocking Solution-A for 1 hour at room temperature followed by washing with 150 μl 1× Tris wash buffer per well. After the transfer of the cell lysate to the MSD plate, the pS6RP (or pAkt) protein is captured on the coated antibody by incubation at room temperature for 1 hour with gentle shaking. After the capture step the plate is washed three times with 150 μl of 1× Tris wash buffer per well. Then 25 μl detection antibody conjugated with a Sulfo-Tag is added and incubated for 1 hour at room temperature with gentle shaking. Subsequently the antibody solution is removed and the plate is washed 3 times with 150 μl 1× Tris wash buffer per well and 150 μl Read buffer is added. The plates are analysed on a MSD 2400 Plate Reader (MesoScale Discovery). Data analysis is performed using nonlinear regression for a sigmoidal dose-response with a variable slope.

[4] = molecular target: T3, PI3K delta (PI3Kd) (Homo sapiens, UniProt O00329); assay: kinobeads assay, PI3K delta (dot blot detection); format: binding
T3 construct: endogenous in cells; host or cells: Jurkat cells (ATCC TIB-152, clone E6-1), lysate
Description: as §1, §2, §3, §4, §5, §6, §7

[5] = molecular target: T4, DNA-dependent protein kinase (DNA-PK) (Homo sapiens, UniProt P78527); assay: kinobeads assay, DNA-PK (dot blot detection); format: binding
T4 construct: endogenous in cells; host or cells: Jurkat cells (ATCC TIB-152, clone E6-1), lysate
Description: as §1, §2, §3, §4, §5, §6, §7

[6] = molecular target: T5, PI3Kβ (Homo sapiens, UniProt P42338); assay: kinobeads assay, PI3K beta (dot blot detection); format: binding; conditions: Table 4, read-out: Inhibition values (IC50) PI3Kb
T5 construct: endogenous in cells; host or cells: Jurkat cells (ATCC TIB-152) lysate, the only lysate described

[7] = molecular target: T6, PI3Kα (Homo sapiens, UniProt P42336); assay: kinobeads assay, PI3K alpha (dot blot detection); format: binding; conditions: Table 4, read-out: Inhibition values (IC50) PI3Ka
T6 construct: endogenous in cells; host or cells: Jurkat cells (ATCC TIB-152) lysate, the only lysate described

[8] = Table 2, Jurkat cell lysate, read-out: Inhibition values (IC50) mTor
[9] = Table 4, read-out: Inhibition values (IC50) mTOR
[10] = Table 2, Jurkat cell lysate, read-out: Inhibition values (IC50) PI3Kd
[11] = Table 4, read-out: Inhibition values (IC50) PI3Kd
[12] = Table 2, Jurkat cell lysate, read-out: Inhibition values (IC50) DNAPK
[13] = Table 4, read-out: Inhibition values (IC50) DNAPK

T3 sequence (O00329 whole entry): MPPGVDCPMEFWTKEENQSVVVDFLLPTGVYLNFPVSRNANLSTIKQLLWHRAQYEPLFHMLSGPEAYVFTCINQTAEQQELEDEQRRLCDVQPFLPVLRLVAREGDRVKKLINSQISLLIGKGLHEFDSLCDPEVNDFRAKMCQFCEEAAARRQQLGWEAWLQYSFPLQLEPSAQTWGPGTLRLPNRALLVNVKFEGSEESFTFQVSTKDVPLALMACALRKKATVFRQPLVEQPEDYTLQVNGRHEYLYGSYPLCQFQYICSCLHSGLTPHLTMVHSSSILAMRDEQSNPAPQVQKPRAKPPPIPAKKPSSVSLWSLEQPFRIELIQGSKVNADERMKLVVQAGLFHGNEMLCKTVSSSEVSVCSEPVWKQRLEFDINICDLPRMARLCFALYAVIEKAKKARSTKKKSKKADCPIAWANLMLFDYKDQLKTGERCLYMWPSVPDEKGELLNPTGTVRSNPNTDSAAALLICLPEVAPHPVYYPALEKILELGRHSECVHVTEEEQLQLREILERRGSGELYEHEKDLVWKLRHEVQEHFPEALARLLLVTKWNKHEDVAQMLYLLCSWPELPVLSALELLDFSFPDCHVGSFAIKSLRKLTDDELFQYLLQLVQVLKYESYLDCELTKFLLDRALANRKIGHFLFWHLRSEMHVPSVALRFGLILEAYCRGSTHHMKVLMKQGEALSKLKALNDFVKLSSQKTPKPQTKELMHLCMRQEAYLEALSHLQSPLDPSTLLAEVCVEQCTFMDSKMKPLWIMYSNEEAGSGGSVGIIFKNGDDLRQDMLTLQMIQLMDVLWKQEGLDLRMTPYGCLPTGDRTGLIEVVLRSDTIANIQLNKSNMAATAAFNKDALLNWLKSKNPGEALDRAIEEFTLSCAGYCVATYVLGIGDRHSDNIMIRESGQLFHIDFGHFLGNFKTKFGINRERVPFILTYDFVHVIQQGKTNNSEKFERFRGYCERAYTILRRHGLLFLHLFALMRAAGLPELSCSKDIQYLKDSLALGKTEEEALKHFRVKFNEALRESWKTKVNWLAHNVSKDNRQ
T3 sequence (P27986 whole entry partner): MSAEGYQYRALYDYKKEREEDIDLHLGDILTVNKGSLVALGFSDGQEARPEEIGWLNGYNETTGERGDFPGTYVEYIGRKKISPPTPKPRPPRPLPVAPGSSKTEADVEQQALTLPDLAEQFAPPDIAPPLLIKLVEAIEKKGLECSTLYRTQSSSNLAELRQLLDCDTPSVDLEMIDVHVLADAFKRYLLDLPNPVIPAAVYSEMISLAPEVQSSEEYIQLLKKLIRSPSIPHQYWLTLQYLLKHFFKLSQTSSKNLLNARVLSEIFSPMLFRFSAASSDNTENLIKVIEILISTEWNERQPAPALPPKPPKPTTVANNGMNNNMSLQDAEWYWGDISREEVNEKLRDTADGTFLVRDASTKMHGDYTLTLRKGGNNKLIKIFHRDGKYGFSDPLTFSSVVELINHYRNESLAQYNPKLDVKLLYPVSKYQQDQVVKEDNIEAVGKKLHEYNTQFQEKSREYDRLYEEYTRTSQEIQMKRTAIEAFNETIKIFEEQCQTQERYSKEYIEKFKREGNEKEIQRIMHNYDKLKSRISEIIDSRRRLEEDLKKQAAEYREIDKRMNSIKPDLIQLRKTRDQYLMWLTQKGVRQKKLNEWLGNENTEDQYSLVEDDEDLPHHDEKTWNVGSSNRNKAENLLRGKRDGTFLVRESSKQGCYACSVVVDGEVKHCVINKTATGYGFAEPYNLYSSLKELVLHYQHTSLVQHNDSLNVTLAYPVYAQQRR
T2 sequence (P48736 whole entry): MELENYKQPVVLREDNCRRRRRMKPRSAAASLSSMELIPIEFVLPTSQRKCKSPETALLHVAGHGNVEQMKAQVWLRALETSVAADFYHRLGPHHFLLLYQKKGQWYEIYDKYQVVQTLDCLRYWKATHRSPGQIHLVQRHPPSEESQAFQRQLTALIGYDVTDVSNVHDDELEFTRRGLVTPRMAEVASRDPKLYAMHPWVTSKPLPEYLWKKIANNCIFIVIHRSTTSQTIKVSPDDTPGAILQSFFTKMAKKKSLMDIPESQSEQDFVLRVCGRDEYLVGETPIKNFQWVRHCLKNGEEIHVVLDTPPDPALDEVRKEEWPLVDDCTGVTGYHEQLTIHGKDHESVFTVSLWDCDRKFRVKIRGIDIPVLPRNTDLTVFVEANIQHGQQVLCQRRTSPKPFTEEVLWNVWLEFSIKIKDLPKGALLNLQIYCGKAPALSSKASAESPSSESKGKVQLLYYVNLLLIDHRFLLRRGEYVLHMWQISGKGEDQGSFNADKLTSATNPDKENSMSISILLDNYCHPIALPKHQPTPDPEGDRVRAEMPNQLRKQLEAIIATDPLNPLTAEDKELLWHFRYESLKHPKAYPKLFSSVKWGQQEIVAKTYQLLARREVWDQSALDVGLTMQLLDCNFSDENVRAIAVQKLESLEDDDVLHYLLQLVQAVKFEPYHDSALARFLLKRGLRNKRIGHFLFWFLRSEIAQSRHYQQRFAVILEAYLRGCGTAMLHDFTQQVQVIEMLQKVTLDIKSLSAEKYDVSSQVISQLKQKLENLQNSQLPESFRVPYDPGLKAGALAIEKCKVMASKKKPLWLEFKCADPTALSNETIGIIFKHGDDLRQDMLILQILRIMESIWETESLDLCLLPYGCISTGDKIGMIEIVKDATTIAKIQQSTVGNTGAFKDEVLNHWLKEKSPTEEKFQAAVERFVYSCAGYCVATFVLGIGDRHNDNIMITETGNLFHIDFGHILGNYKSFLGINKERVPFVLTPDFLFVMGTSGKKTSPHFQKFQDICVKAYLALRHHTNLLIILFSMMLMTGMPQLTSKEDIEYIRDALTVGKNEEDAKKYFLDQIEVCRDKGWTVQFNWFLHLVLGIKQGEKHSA
T5 sequence (P42338 whole entry): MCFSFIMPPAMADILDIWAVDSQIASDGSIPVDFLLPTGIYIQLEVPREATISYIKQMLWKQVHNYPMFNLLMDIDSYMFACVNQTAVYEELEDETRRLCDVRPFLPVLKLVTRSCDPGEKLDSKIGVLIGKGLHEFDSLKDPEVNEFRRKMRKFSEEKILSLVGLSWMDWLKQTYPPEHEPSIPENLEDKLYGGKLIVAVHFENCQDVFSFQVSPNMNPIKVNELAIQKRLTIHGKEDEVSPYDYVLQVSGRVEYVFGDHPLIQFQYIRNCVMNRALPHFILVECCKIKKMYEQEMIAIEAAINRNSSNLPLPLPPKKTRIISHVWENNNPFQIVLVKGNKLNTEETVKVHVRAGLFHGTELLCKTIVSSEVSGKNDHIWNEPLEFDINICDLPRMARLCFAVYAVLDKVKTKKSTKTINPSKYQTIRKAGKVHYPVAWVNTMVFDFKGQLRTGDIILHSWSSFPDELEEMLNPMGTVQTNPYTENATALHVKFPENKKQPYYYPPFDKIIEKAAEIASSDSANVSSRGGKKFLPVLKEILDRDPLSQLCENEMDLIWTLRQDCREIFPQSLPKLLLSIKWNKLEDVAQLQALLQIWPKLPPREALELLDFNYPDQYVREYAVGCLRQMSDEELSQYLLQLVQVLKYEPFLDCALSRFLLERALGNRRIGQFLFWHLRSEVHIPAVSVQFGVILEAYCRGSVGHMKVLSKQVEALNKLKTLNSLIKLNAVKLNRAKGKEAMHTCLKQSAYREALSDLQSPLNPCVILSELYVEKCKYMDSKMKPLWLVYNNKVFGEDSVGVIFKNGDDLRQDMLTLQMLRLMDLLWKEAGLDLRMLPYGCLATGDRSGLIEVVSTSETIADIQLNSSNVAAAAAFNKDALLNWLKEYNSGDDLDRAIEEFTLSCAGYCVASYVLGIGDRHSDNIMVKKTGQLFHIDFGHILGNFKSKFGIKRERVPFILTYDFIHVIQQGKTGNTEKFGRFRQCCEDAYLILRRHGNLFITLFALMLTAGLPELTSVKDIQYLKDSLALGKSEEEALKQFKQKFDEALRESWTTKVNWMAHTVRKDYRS
T5 sequence (P27986 whole entry partner): as the sequence (P27986 whole entry partner) above
T6 sequence (P42336 whole entry): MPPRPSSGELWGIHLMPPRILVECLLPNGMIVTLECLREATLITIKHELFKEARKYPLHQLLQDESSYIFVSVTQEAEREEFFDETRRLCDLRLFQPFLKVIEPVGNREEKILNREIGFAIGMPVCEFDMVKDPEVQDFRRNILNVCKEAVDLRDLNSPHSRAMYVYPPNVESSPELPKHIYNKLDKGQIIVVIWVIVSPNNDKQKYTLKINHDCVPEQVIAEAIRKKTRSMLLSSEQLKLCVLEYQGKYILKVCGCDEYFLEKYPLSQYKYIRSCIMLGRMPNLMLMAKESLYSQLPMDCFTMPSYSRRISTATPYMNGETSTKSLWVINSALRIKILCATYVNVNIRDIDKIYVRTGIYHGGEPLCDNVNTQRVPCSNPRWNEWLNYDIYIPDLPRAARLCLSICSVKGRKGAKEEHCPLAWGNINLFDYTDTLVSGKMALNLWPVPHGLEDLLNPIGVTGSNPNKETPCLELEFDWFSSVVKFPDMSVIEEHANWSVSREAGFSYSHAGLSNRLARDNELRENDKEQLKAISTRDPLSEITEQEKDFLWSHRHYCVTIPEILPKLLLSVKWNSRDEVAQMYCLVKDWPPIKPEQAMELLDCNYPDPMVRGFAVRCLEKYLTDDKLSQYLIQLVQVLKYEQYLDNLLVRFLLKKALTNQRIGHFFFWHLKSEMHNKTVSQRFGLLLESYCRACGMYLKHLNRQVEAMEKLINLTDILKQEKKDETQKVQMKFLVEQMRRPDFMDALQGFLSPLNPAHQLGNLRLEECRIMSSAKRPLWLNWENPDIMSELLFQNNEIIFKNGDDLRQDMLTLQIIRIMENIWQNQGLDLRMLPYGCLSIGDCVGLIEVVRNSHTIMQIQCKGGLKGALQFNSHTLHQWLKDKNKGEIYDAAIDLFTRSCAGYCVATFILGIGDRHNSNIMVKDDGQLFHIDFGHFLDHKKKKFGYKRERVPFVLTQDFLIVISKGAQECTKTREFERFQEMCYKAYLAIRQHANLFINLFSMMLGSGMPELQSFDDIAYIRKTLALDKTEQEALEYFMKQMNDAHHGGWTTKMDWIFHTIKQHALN
T6 sequence (P27986 whole entry partner): as the sequence (P27986 whole entry partner) above

Structure (SMILES) | IC50 [1, 8] [µM] | IC50 [1, 9] [µM] | IC50 [2] [µM] | IC50 [4, 10] [µM] | IC50 [4, 11] [µM] | IC50 [5, 12] [µM] | IC50 [5, 13] [µM] | IC50 [6] [µM] | IC50 [7] [µM] | IC50 [3] [µM]
CCNC(=O)Nc1ccc(-c2ccnc(N3CCOC[C@@H]3C)n2)cc1 [Example 38, (S)-1-ethyl-3-(4-(2-(3-methylmorpholino)pyrimidin-4-yl)phenyl)urea] | 1 to 10 | 1 to 10 | ≥ 10 | ≥ 10 | ≥ 10 | ≥ 10 | ≥ 10 | ≥ 10 | ≥ 10 | 0.1 to 1
C[C@H]1COCCN1c1ccnc(-c2ccc(NC(=O)NCCF)cc2)n1 [Example 55, (S)-1-(2-fluoroethyl)-3-(4-(4-(3-methylmorpholino)pyrimidin-2-yl)phenyl)urea] | 0.1 to 1 | 0.1 to 1 | ≥ 10 | ≥ 10 | ≥ 10 | ≥ 10 | ≥ 10 | ≥ 10 | ≥ 10 | 0.1 to 1
C[C@H]1COCCN1c1nccc(-c2ccc(NC(=O)NCCO)cc2)n1 [Example 58, (S)-1-(2-hydroxyethyl)-3-(4-(2-(3-methylmorpholino)pyrimidin-4-yl)phenyl)urea] | 1 to 10 | 1 to 10 | ≥ 10 | ≥ 10 | ≥ 10 | ≥ 10 | ≥ 10 | ≥ 10 | ≥ 10 | 0.1 to 1
C[C@H]1COCCN1c1cc(-c2cncc(F)c2)nc(-c2ccc(NC(=O)NCCF)cc2F)n1 [Example 67, (S)-1-(3-fluoro-4-(4-(5-fluoropyridin-3-yl)-6-(3-methylmorpholino)pyrimidin-2-yl)phenyl)-3-(2-fluoroethyl)urea] | 1 to 10 | 1 to 10 | ≥ 10 | ≥ 10 | ≥ 10 | ≥ 10 | ≥ 10 | ≥ 10 | ≥ 10 | 0.1 to 1
C[C@H]1COCCN1c1cc(-c2cncc(S(C)(=O)=O)c2)nc(-c2ccc(NC(=O)NC3CC3)cc2)n1 [Example 22, (S)-1-cyclopropyl-3-(4-(4-(3-methylmorpholino)-6-(5-(methylsulfonyl)pyridin-3-yl)pyrimidin-2-yl)phenyl)urea] | 1 to 10 | 1 to 10 | – | ≥ 10 | ≥ 10 | ≥ 10 | ≥ 10 | – | – | 0.1 to 1
CNC(=O)Nc1ccc(-c2nccc(N3CCOC[C@@H]3C)n2)cc1 [Example 34, (S)-1-methyl-3-(4-(4-(3-methylmorpholino)pyrimidin-2-yl)phenyl)urea] | 1 to 10 | 1 to 10 | – | ≥ 10 | ≥ 10 | ≥ 10 | ≥ 10 | – | – | 0.1 to 1

More lines, main results first:

IC50 [1, 8] [µM] | IC50 [1, 9] [µM] | IC50 [2] [µM] | IC50 [4, 10] [µM] | IC50 [4, 11] [µM] | IC50 [5, 12] [µM] | IC50 [5, 13] [µM] | IC50 [6] [µM] | IC50 [7] [µM] | Structure (SMILES) | IC50 [3] [µM]
1 to 10 | 1 to 10 | ≥ 10 | ≥ 10 | ≥ 10 | ≥ 10 | ≥ 10 | ≥ 10 | ≥ 10 | C[C@H]1COCCN1c1nc(-c2ccc(NC(=O)NC(C)(C)CO)cc2)cc(-c2cc(F)ccc2S(C)(=O)=O)n1 [Example 69, (S)-1-(4-(6-(5-fluoro-2-(methylsulfonyl)phenyl)-2-(3-methylmorpholino)pyrimidin-4-yl)phenyl)-3-(1-hydroxy-2-methylpropan-2-yl)urea] | < 0.1
1 to 10 | 1 to 10 | ≥ 10 | ≥ 10 | ≥ 10 | ≥ 10 | ≥ 10 | ≥ 10 | ≥ 10 | C[C@H]1COCCN1c1cc(-c2cc(F)ccc2S(C)(=O)=O)nc(-c2ccc(NC(=O)NC3CC3)cc2F)n1 [Example 66, (S)-1-cyclopropyl-3-(3-fluoro-4-(4-(5-fluoro-2-(methylsulfonyl)phenyl)-6-(3-methylmorpholino)pyrimidin-2-yl)phenyl)urea] | 0.1 to 1
– | 1 to 10 | ≥ 10 | – | ≥ 10 | – | ≥ 10 | ≥ 10 | ≥ 10 | CC(=O)NCCNC(=O)Nc1ccc(-c2cc(-c3cc(F)ccc3S(C)(=O)=O)nc(N3CCOC[C@@H]3C)n2)cc1 [Example 85, (S)—N-(2-(3-(4-(6-(5-fluoro-2-(methylsulfonyl)phenyl)-2-(3-methylmorpholino)pyrimidin-4-yl)phenyl)ureido)ethyl)acetamide] | –
